Results on 28 compounds are retold here after doi:10.1101/2022.05.04.490172v1 (biorxiv, 2022).

For this assay, the system named is BRN2 (POU3F2), luciferase reporter assay. In words: cells. Conditions: for inhibition at 10 µM: read-out: % of Inhibition (Luciferase assay) / 10µM; for inhibition at 30 µM: read-out: % of Inhibition (Luciferase assay) / 30µM.

Consider `Oc1ccc(/C=N/Nc2nc3ccccc3[nH]2)cc1` [B-50], for which the inhibition at 10 µM is 66.3% and the inhibition at 30 µM was determined as 72.1%.
`Cc1cc(C(=O)Nc2cc(F)ccc2C)c2ccccc2n1` [B-5]: the inhibition at 10 µM came out at 4.75% and the inhibition at 30 µM was 9.07%.
For `c1ccc2c(c1)C(=NNc1nc3ccccc3[nH]1)c1ccccc1-2` [B-40] the same measures were 93.2% and 98.8%.
For `Cc1ccccc1/C=N/Nc1nc2ccccc2[nH]1` [B-47] the same measures were -2.99% and 36.5%.
In the same order, the values of `Cn1c(N/N=C2/CCc3c(O)cccc32)nc2ccccc21` [B-36] are -39.4% and 28.6%.
Regarding `O=C1c2ccccc2C(=O)N1c1nc(-c2ccccc2)cs1` [B-22], the inhibition at 10 µM was -129% and the inhibition at 30 µM is -138%.
For `Oc1ccc(/C=N/Nc2nc3ccccc3[nH]2)cc1O` [B-44] the same measures were 0.0894% and 66.2%.
On to `Cc1cc(C(=O)Nc2cccc(Cl)c2)c2cc(F)ccc2n1` [B-14], for which the inhibition at 10 µM was determined as 41.6% and the inhibition at 30 µM is 32%.
For `Cc1cc(C)c2c(c1)/C(=N/Nc1nc3ccccc3[nH]1)CCC2` [B-33] the same measures were 21.6% and 84.3%.
Consider `Oc1ccccc1/C=N\Nc1nc2ccccc2[nH]1` [B-3], for which the inhibition at 10 µM was 69.2% and the inhibition at 30 µM stood at 75.5%.
As for `Oc1cccc(/C=N/Nc2nc3ccccc3[nH]2)c1` [B-54], the inhibition at 10 µM is -45.1% and the inhibition at 30 µM is -34.4%.
In the same order, the values of `O=C(Oc1cccc(F)c1)c1cccc2ccccc12` [B-6] are -6.6% and -58%.
`Oc1cccc(/C=N/Nc2nc3ccccc3[nH]2)c1O` [B-59]: the inhibition at 30 µM was -145%.
Same read-out and setting: in the case of `c1ccc(-c2nc(-c3cccnc3)no2)cc1` [B-27] it was -166%.
For `Fc1ccc(Cl)cc1/C=N/Nc1nc2ccccc2s1` [B-4], the inhibition at 10 µM was found to be 19.5% and the inhibition at 30 µM amounted to 71.4%.
In the same order, the values of `Cc1ccc(-c2nc3ccccc3n2C)o1` [B-55] are -120% and -88.1%.
For `c1ccc2c(c1)CCC/C2=N\Nc1nc2ccccc2[nH]1` [B-32] the same measures were 32.4% and 77.2%.
`Cc1cccc(C(=O)Oc2cccc3ccccc23)c1` [B-12]: the inhibition at 10 µM turned out to be 5.02% and the inhibition at 30 µM is -8.87%.
In the same order, the values of `c1cc(-c2noc(C3CCCCC3)n2)ccn1` [B-28] are -139% and -180%.
In the same order, the values of `C[C@@H]1Cc2ccccc2N1C(=O)c1cccc2ccccc12` [B-20] are 15.7% and 35.5%.
In the same order, the values of `Cn1c(-c2ccc(-c3ccccc3)o2)nc2ccccc21` [B18] are 97.6% and 99.4%.
Take `Clc1ccc(Cl)c(-c2ccc(-c3nc4ccccc4[nH]3)o2)c1` [B-71]: the inhibition at 10 µM came out at 46.2%.
For `O=C(Nc1ccc(F)cc1)c1ccccc1` [B-9], the inhibition at 10 µM is -61.5% and the inhibition at 30 µM is -58.1%.
In the same order, the values of `Clc1ccc(-c2ccc(-c3nc4ccccc4[nH]3)o2)cc1Cl` [B-67] are -99.2% and 74%.
For `CC/C(=N\Nc1nc2ccccc2[nH]1)c1ccc(F)cc1` [B-34] the same measures were 33.1% and 80%.
With `c1ccc([C@H]2COC(c3cccs3)=N2)cc1` [B-23], the inhibition at 10 µM was -121% and the inhibition at 30 µM is -147%.
For `Oc1c(Br)cc(Br)cc1/C=N/Nc1nc2ccccc2[nH]1` [B-53] the same measures were -127% and -80.2%.
For `CC/C(=N\Nc1nc2ccccc2[nH]1)c1ccc(O)cc1` [B-35] the same measures were 0.336% and 50.1%.
